# Tested on: NBD1/3D
# Assay: Aggregation analysis using differential static light scattering (DSLS), NBD1 thermal stability
# Assay type: binding, Human
# Conditions: ΔTagg versus DMSO control; compound at 100 μM
# Method in brief: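 Purified NBD1 at 0.2 mg/ml in S200 buffer (pH 7.6, 2 mM ATP, 5 mM MgCl2, 1% glycerol) was heated with compound at 1 °C/min to 70 °C. Tagg taken from the light-scattering curve inflection point; ΔTagg = compound Tagg minus mean DMSO control Tagg.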
row,SMILES,DSLS NBD1/3D Human Stability delta-T (° C.) @ 100 (μM)
1,"O=C(O)CCc1cccc(C2(c3cnc(-c4cc(Oc5ccc6scnc6c5)ccc4F)[nH]3)CCOCC2)c1 [Example 166, 3-(3-(4-(2-(5-(Benzo[d]thiazol-5-yloxy)-2-fluorophenyl)-1H-imidazol-5-yl)tetrahydro-2H-pyran-4-yl)phenyl)propanoic acid]",C (C: ≤5° C.)
2,"CS(=O)(=O)c1c(Oc2ccc(F)c(-c3ncc(C4(c5cccc(CCC(=O)O)c5)OCCCO4)[nH]3)c2)c(F)cc2[nH]ccc12 [Example 44, 3-(3-(2-(2-(2-Fluoro-5-((6-fluoro-4-(methylsulfonyl)-1H-indol-5-yl)oxy)phenyl)-1H-imidazol-5-yl)-1,3-dioxan-2-yl)phenyl)propanoic acid]",A (A: T ≥ 10° C.)
3,"Cc1nc(-c2cc(Oc3c(F)cc4[nH]ccc4c3C)ccc2F)[nH]c1C(O)c1cccc(CCC(=O)O)c1 (centres unmarked) [Example 217, 3-(3-((2-(2-Fluoro-5-((6-fluoro-4-methyl-1H-indol-5-yl)oxy)phenyl)-4-methyl-1H-imidazol-5-yl)(hydroxy)methyl)phenyl)propanoic acid]",B (B: 5-10° C.)
4,"CCc1c(Oc2cccc(-c3ncc(C(O)c4cccc(CCC(=O)O)c4)[nH]3)c2)ccc2[nH]ccc12 (centres unmarked) [Example 183, 3-(3-((2-(3-((4-Ethyl-1H-indol-5-yl)oxy)phenyl)-1H-imidazol-5-yl)(hydroxy)methyl)phenyl)propanoic acid]",B (B: 5-10° C.)
5,"CC(C)(c1cnc(-c2cc(Oc3c(F)cc4[nH]ccc4c3F)ccc2F)[nH]1)c1cccc(CCC(=O)O)c1F [Example 160, 3-(3-(2-(2-(5-((4,6-difluoro-1H-indol-5-yl)oxy)-2-fluorophenyl)-1H-imidazol-5-yl)propan-2-yl)-2-fluorophenyl)propanoic acid]",B (B: 5-10° C.)
6,"CC(Cc1cccc(C(C)c2cnc(-c3cc(Oc4c(F)cc5[nH]ccc5c4F)ccc3F)[nH]2)c1F)C(=O)O (single isomer, unassigned) [Example 137A, 3-(3-(1-(2-(5-((4,6-difluoro-1H-indol-5-yl)oxy)-2-fluorophenyl)-1H-imidazol-5-yl)ethyl)-2-fluorophenyl)-2-methylpropanoic acid]",B (B: 5-10° C.)
7,"CC(C)(c1cnc(-c2cc(Oc3c(F)c(F)c4[nH]ccc4c3F)ccc2F)[nH]1)c1cccc(CCC(=O)O)c1F [Example 157, 3-(2-fluoro-3-(2-(2-(2-fluoro-5-((4,6,7-trifluoro-1H-indol-5-yl)oxy)phenyl)-1H-imidazol-5-yl)propan-2-yl)phenyl)propanoic acid]",B (B: 5-10° C.)
8,"CC(c1cnc(-c2cc(Oc3c(F)cc4[nH]ccc4c3CCP(C)(C)=O)ccc2F)[nH]1)c1cccc(CCC(=O)O)c1F (single isomer, unassigned) [Example 135B, 3-(3-(1-(2-(5-((4-(2-(dimethylphosphoryl)ethyl)-6-fluoro-1H-indol-5-yl)oxy)-2-fluorophenyl)-1H-imidazol-5-yl)ethyl)-2-fluorophenyl)propanoic acid]",C (C: ≤5° C.)
9,"Cc1c(Oc2ccc(F)c(-c3ncc(C(C)(C)c4cccc(CCC(=O)O)c4F)[nH]3)c2)ccc2[nH]ccc12 [Example 161, 3-(2-fluoro-3-(2-(2-(2-fluoro-5-((4-methyl-1H-indol-5-yl)oxy)phenyl)-1H-imidazol-5-yl)propan-2-yl)phenyl)propanoic acid]",B (B: 5-10° C.)
10,"CC(c1cnc(-c2cc(Oc3c(F)cc4[nH]ccc4c3CC(F)(F)F)ccc2F)[nH]1)c1cccc(CCC(=O)O)c1F (single isomer, unassigned) [Example 128A, 3-(2-fluoro-3-(1-(2-(2-fluoro-5-((6-fluoro-4-(2,2,2-trifluoroethyl)-1H-indol-5-yl)oxy)phenyl)-1H-imidazol-5-yl)ethyl)phenyl)propanoic acid]",B (B: 5-10° C.)
11,"CC(C#N)(c1cccc(CCC(=O)O)c1)c1cnc(-c2cc(Oc3nc4cc[nH]c4cc3F)ccc2F)[nH]1 (centres unmarked) [Example 61, 3-(3-(1-cyano-1-(2-(2-fluoro-5-((6-fluoro-1H-pyrrolo[3,2-b]pyridin-5-yl)oxy)phenyl)-1H-imidazol-5-yl)ethyl)phenyl)propanoic acid]",B (B: 5-10° C.)
12,"CC(O)(c1cc(F)cc(CCC(=O)O)c1)c1c[nH]c(-c2cc(Oc3c(F)cc4[nH]ccc4c3F)ccc2F)n1 (centres unmarked) [Example 220, 3-(3-(1-(2-(5-((4,6-Difluoro-1H-indol-5-yl)oxy)-2-fluorophenyl)-1H-imidazol-4-yl)-1-hydroxyethyl)-5-fluorophenyl)propanoic acid]",B (B: 5-10° C.)
13,"Cc1c(Oc2ccc(F)c(-c3ccn(Cc4cnc(CCC(=O)O)s4)n3)c2)c(F)cc2[nH]ccc12 [Example 18, 3-(5-((3-(2-Fluoro-5-((6-fluoro-4-methyl-1H-indol-5-yl)oxy)phenyl)-1H-pyrazol-1-yl)methyl)thiazol-2-yl)propanoic acid]",C (C: ≤5° C.)
14,"O=C(O)CCc1cccc(Cc2csc(-c3cccc(Oc4ccc5[nH]ccc5c4CO)c3)n2)c1 [Example 99, 3-(3-((2-(3-((4-(Hydroxymethyl)-1H-indol-5-yl)oxy)phenyl)thiazol-4-yl)methyl)phenyl)propanoic acid]",B (B: 5-10° C.)
15,"O=C(O)CCc1cccc(Cc2cnc(-c3cc(Oc4c(F)cc5[nH]ccc5c4F)ccc3F)[nH]2)c1Cl [Example 110, 3-(2-chloro-3-((2-(5-((4,6-difluoro-1H-indol-5-yl)oxy)-2-fluorophenyl)-1H-imidazol-5-yl)methyl)phenyl)propanoic acid]",B (B: 5-10° C.)
16,"O=C(O)CCc1ccc(F)c(Cc2cnc(-c3cc(Oc4c(F)cc5[nH]ccc5c4F)ccc3F)[nH]2)c1 [Example 103, 3-(3-((2-(5-((4,6-difluoro-1H-indol-5-yl)oxy)-2-fluorophenyl)-1H-imidazol-5-yl)methyl)-4-fluorophenyl)propanoic acid]",B (B: 5-10° C.)
17,"CC1(C)COC(c2cccc(CCC(=O)O)c2)(c2cnc(-c3cc(Oc4c(F)c(F)c5[nH]ccc5c4F)ccc3F)[nH]2)OC1 [Example 227, 3-(3-(2-(2-(2-Fluoro-5-((4,6,7-trifluoro-1H-indol-5-yl)oxy)phenyl)-1H-imidazol-5-yl)-5,5-dimethyl-1,3-dioxan-2-yl)phenyl)propanoic acid]",A (A: T ≥ 10° C.)
18,"CC(c1coc(-c2cc(Oc3c(F)cc4[nH]ccc4c3S(C)(=O)=O)ccc2F)n1)c1cccc(CCC(=O)O)c1F (single isomer, unassigned) [Example 43B, 3-(2-fluoro-3-(1-(2-(2-fluoro-5-((6-fluoro-4-(methylsulfonyl)-1H-indol-5-yl)oxy)phenyl)oxazol-4-yl)ethyl)phenyl)propanoic acid]",C (C: ≤5° C.)
19,"CC(CC#N)(c1cccc(CCC(=O)O)c1)c1cnc(-c2cc(Oc3c(F)cc4[nH]ccc4c3F)ccc2F)[nH]1 (centres unmarked) [Example 77, 3-(3-(1-cyano-2-(2-(5-((4,6-difluoro-1H-indol-5-yl)oxy)-2-fluorophenyl)-1H-imidazol-5-yl)propan-2-yl)phenyl)propanoic acid]",B (B: 5-10° C.)
20,"O=C(O)CCCCc1cccc(Cc2nnc(-c3cccc(Oc4cc5cc[nH]c5cn4)c3)[nH]2)c1 [Example 257, 5-(3-((5-(3-((1H-pyrrolo[2,3-c]pyridin-5-yl)oxy)phenyl)-4H-1,2,4-triazol-3-yl)methyl)phenyl)pentanoic acid]",C (C: ≤5° C.)
21,"N#Cc1c(CCC(=O)O)cccc1Cc1cnc(-c2cc(Oc3c(F)cc4[nH]ccc4c3F)ccc2F)[nH]1 [Example 122, 3-(2-cyano-3-((2-(5-((4,6-difluoro-1H-indol-5-yl)oxy)-2-fluorophenyl)-1H-imidazol-5-yl)methyl)phenyl)propanoic acid]",B (B: 5-10° C.)
22,"CS(=O)(=O)c1c(Oc2ccc(F)c(-c3nc(C4(c5cccc(CCC(=O)O)c5)CC(F)(F)C4)cs3)c2)c(F)cc2[nH]ccc12 [Example 79, 3-(3-(3,3-Difluoro-1-(2-(2-fluoro-5-((6-fluoro-4-(methylsulfonyl)-1H-indol-5-yl)oxy)phenyl)thiazol-4-yl)cyclobutyl)phenyl)propanoic acid]",B (B: 5-10° C.)
23,"COc1cc(F)c(-c2ncc(C(C)(O)c3cccc(CCC(=O)O)c3)[nH]2)cc1Oc1c(F)cc2[nH]ccc2c1C (centres unmarked) [Example 281, 3-(3-(1-(2-(2-fluoro-5-((6-fluoro-4-methyl-1H-indol-5-yl)oxy)-4-methoxyphenyl)-1H-imidazol-5-yl)-1-hydroxyethyl)phenyl) propanoic acid]",B (B: 5-10° C.)
24,"COC(=O)/C=C/c1cccc(Cn2ccc(-c3cccc(Oc4ccc5[nH]ccc5c4CO)c3)n2)c1 [Example 7, Methyl (E)-3-(3-((3-(3-((4-(hydroxymethyl)-1H-indol-5-yl)oxy)phenyl)-1H-pyrazol-1-yl)methyl)phenyl)acrylate]",C (C: ≤5° C.)
25,"Cc1c(Oc2ccc(F)c(-c3ncc([C@]4(c5cccc(CCC(=O)O)c5)C[C@@H](O)CO4)[nH]3)c2)c(F)cc2[nH]ccc12 (racemic) [Example 275, rac-3-(3-((2r,4r)-2-(2-(2-Fluoro-5-((6-fluoro-4-methyl-1H-indol-5-yl)oxy)phenyl)-1H-imidazol-5-yl)-4-hydroxytetrahydrofuran-2-yl)phenyl)propanoic acid]",B (B: 5-10° C.)
26,"CS(=O)(=O)c1c(Oc2ccc(F)c(-c3ncc(Cc4ccc5c(c4)CC(C(=O)O)C5)[nH]3)c2)c(F)cc2[nH]ccc12 (single isomer, unassigned) [Example 83A, 5-((2-(2-Fluoro-5-((6-fluoro-4-(methylsulfonyl)-1H-indol-5-yl)oxy)phenyl)-1H-imidazol-5-yl)methyl)-2,3-dihydro-1H-indene-2-carboxylic acid]",B (B: 5-10° C.)

# Reference: patent US20240279220A1, “INDOLE COMPOUNDS AND METHODS OF USE” (Genzyme Corporation, priority 2021, published 2024)
